Results as given in US7226945B2 (AstraZeneca AB, priority 2000, dated 2007).
Where two headings read alike, the source gives them in different places.

What was measured:
ER-β = target: T1, ER-β (Homo sapiens, UniProt Q92731); assay: Estrogen receptor binding measurement (competition with [125I]-estradiol), ER-β; tables head the values "FP β-ER Ki"
T1 construct: made in house; host or cells: cell-free: TNT T7 Quick-Coupled rabbit reticulocyte lysate (Promega L1170)
Method: (§1) Receptor protein was prepared by in vitro transcription and translation of these plasmids using the TNT T7 Quick-Coupled reticulocyte lysate system (Promega Cat.#L1170). […] Programmed lysate was then aliquotted and stored frozen at −80° C.
(§2) Compounds were tested in duplicate at half-log concentrations ranging from 10 pM to 3 μM. Compounds were prepared as 1 mM stocks in DMSO, then diluted in the binding-assay buffer (in mM: 20 HEPES, 150 NaCl, 1 EDTA, 6 monothioglycerol and 10 Na2MoO4,; 10% wt/vol glycerol, and pH=7.9) to a series of […] concentrated, 20 μL aliquots in a 96-well plate. Receptor aliquots were thawed on ice, and appropriately diluted (see below) in binding assay buffer. Diluted receptor (30 μL/each) was added to each well. […] Plates containing the final assay mixture were mixed on a shaker for 2 min and incubated overnight (˜16 h) at 4° C.
(§3) Receptor-bound and unbound radioligand was separated by filtration over sephadex columns. Columns (45 μL bed volume) were prepared by adding dry column media (Pharmacia Cat#G-25) to 96-well column templates (Millipore MultiScreen Plates Cat#MAHVN4510). Columns were then saturated with 300 μL of binding-assay buffer and stored at 4° C. Prior to use, stored columns were spun for 10 minutes at 2000 RPM, then washed twice with 200 μL of fresh binding buffer. The binding-assay mixtures (50 μL/each) were then applied to the columns, and an additional elution volume of 35 μL was immediately applied to the column. Receptor-bound radioligand was then eluted from the column by centrifugation for 10 minutes at 2000 RPM. A scintillation cocktail (145 μL) was added to the eluted radioligand/receptor complex, and radio-label was measured by liquid scintillation counting.
(§4) The volume of receptor-programmed reticulocyte lysate to be added to the binding assay was determined independently from two measurements made on each batch of receptor prepared. First, Kis were determined for standard compounds using a series of dilutions of the receptor preparation. Scatchard analysis of ligand binding affinity was performed at the receptor dilutions that produced reported Kis for these compounds and an acceptable signal:noise ratio (˜10).

ER-α = target: T2, ER-α (Homo sapiens, UniProt P03372); assay: Estrogen receptor binding measurement (competition with [125I]-estradiol), ER-α; tables head the values "FP α-ER Ki"
T2 construct: made in house; host or cells: cell-free: TNT T7 Quick-Coupled rabbit reticulocyte lysate (Promega L1170)
T2 sequence (P03372 1-595): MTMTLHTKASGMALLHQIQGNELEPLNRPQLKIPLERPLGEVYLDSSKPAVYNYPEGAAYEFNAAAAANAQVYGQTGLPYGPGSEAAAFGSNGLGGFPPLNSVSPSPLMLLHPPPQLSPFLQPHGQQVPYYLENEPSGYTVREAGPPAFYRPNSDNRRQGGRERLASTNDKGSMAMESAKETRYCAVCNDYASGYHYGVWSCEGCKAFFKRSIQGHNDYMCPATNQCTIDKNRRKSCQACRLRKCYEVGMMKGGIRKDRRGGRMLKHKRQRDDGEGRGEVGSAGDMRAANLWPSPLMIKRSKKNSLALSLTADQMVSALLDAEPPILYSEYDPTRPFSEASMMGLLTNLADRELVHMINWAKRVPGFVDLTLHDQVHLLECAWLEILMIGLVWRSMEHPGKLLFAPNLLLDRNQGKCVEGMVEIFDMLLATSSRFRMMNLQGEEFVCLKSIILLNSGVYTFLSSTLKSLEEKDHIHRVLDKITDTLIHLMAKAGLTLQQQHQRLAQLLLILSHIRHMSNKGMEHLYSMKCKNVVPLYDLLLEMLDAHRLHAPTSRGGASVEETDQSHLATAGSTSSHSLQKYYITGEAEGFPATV
Method: as §1, §2, §3, §4

ER = assay: Scatchard analysis of ligand binding affinity on receptor preparations; details: Scatchard analysis at chosen receptor dilutions; receptor subtype not specified; read-out: KD for [125I]-estradiol
Method: as §4

T1 sequence (Q92731 54-530 limits assumed): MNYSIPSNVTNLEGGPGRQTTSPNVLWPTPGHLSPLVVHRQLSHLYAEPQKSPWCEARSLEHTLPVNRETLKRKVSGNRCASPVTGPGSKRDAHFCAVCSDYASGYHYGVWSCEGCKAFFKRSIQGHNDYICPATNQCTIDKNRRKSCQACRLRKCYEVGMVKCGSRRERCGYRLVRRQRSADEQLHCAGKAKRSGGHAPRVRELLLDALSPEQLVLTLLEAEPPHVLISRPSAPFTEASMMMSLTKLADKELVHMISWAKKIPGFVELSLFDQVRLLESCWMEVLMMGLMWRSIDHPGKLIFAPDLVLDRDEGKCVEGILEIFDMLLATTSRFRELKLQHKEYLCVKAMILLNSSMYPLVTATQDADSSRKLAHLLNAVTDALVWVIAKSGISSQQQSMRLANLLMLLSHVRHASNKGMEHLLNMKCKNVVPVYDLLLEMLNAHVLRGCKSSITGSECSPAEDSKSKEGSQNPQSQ

Selectivity (ER-β; ER-α Ki / ER-β Ki)	Ki (ER-β; read-out: FP β-ER Ki)	Ki (ER-α; read-out: FP α-ER Ki)	FP Sel. Ratio (ER-β; ER-α Ki / ER-β Ki)	Ki (ER-β; LOQ = 0.01 nM, upper limit 1000 nM, read-out: FP ER-β Ki)	Ki (ER-α; LOQ = 0.01 nM, upper limit 1000 nM, read-out: FP ER-α Ki)	Structure (SMILES)	Kd (ER)
139	4.3 nM	600 nM				O=c1c(-c2ccc(O)cc2)coc2cc(O)cc(Cl)c12 [Example 1, 5-Chloro-7-hydroxy-3-(4-hydroxyphenyl)-4-oxo-4H-1 benzopyran]	
19	16 nM	300 nM				O=c1c(-c2ccc(O)cc2Cl)coc2cc(O)cc(Cl)c12 [Example 2, 5-Chloro-3-(2-chloro-4-hydroxyphenyl)-7-hydroxy-4-oxo-4H-1-benzopyran]	
18	50 nM	900 nM				Cc1cc(O)ccc1-c1coc2cc(O)cc(Cl)c2c1=O [Example 3, 5-chloro-7-hydroxy-3-(4-hydroxy-2-methylphenyl)-4-oxo-4H-1-benzopyran]	
>56	39 nM	> 2200 nM				O=c1c(-c2ccc(O)cc2)coc2cc(O)cc(F)c12 [Example 4, 5-Fluoro-7-hydroxy-3-(4-hydroxyphenyl)-4-oxo-4H-1-benzopyran]	
90	2.8 nM	251 nM				O=c1c(-c2ccc(O)cc2)coc2cc(O)cc(Br)c12 [Example 5, 5-Bromo-7-hydroxy-3-(4-hydroxyphenyl)-4-oxo-4H-1-benzopyran]	
38	3.9 nM	147 nM				O=c1c(-c2ccc(O)cc2)coc2cc(O)cc(I)c12 [Example 6, 7-Hydroxy-3-(4-hydroxyphenyl)-5-iodo-4-oxo-4H-1-benzopyran]	
>39	58 nM	> 1000 nM				N#Cc1cc(O)cc2occ(-c3ccc(O)cc3)c(=O)c12 [Example 7, 5-Cyano-7-hydroxy-3-(4-hydroxyphenyl)-4-oxo-4H-1-benzopyran]	
7	84 nM	563 nM				CSc1cc(O)cc2occ(-c3ccc(O)cc3)c(=O)c12 [Example 8, 7-Hydroxy-3-(4-hydroxyphenyl)-5-methylthio-4-oxo-4H-1-benzopyran]	
35	1.8 nM	62 nM				O=c1oc2cc(O)cc(Cl)c2cc1-c1ccc(O)cc1 [Example 9, 5-Chloro-7-hydroxy-3-(4-hydroxyphenyl)coumarin]	
6.4	2 nM	13 nM				Oc1ccc(C2COc3cc(O)cc(Cl)c3C2)cc1 (stereo not shown) [Example 10, 5-Chloro-7-hydroxy-3-(4 hydroxyphenyl)chroman]	
			32.8	46.1 nM	≥ 1000 nM	Cc1oc2cc(O)cc(Cl)c2c(=O)c1-c1ccc(O)cc1 [Example 11]	
						C[C@]12CC[C@@H]3c4ccc(O)cc4CC[C@H]3[C@@H]1C[C@@H](I)[C@@H]2O [[^125I]-estradiol, [^125I]-16α-iodo-3,17β-estradiol]	0.1 to 1 nM
